Experimental data taken from PMC10403574, “Discovery of a pyrrole-pyridinimidazole derivative as novel SIRT6 inhibitor for sensitizing pancreatic cancer to gemcitabine” (Cell Death & Disease, 2023).

Biological target: SIRT6 (Homo sapiens, UniProt Q8N6T7)
Assay: Cellular thermal shift assay (CETSA) in Hela cells
Type: cell-based
Design: endogenous in cells; host or cells: HeLa
Conditions: 8a 25 μM, 6 h
Experimental: The CETSA [26] approach builds on the thermal shift assay concept where ligand binding to its target protein affects protein stability at high temperatures. Hela cells were plated in 100 mm plates. After 12 h attachment, Hela cells were incubated with 8a (25 μM) for 6 h, and then the cells were digested with trypsin and collected. The collected cells were subsequently aliquoted into […], and incubated each part at different temperatures (40, 41, 42, 43, 44, 45, 46, 47, 48, 49 and 50 °C) for 3 min. The heated cells were then snap frozen in liquid nitrogen three times to lyse. After that, the lysed cells were then centrifuged at 12,000 rpm for 20 min. Then the level of SIRT6 was detected by western blot.

Chain of SIRT6 (Q8N6T7 whole entry): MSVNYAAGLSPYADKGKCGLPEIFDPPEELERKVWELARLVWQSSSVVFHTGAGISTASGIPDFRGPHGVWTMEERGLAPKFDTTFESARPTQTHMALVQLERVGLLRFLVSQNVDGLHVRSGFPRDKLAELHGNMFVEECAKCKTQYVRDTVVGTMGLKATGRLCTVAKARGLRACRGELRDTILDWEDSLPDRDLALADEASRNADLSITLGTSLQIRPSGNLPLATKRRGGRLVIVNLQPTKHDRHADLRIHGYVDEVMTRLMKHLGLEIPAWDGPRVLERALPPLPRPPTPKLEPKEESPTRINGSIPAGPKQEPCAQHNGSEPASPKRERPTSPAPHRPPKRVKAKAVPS

With `Br.CN(C)C(SCCCCCCn1cnc2c(-c3cc(Br)c(Br)[nH]3)nccc21)=[N+](C)C.[Cl-]` [Compound 8a] the “thermal stability of SIRT6” value was “increased”.
